{"source": "patent US20230365556A1", "about": "“N-ACYL AMINO ACID COMPOUNDS AND METHODS OF USE” (Pliant Therapeutics, Inc., priority 2016, published 2023)", "key": {"[1]": {"target": "αvβ1 integrin (αvβ1 expressing CHO cells) (Homo sapiens (Human), UniProt P05556+P06756)", "sequence (P06756 31-889)": "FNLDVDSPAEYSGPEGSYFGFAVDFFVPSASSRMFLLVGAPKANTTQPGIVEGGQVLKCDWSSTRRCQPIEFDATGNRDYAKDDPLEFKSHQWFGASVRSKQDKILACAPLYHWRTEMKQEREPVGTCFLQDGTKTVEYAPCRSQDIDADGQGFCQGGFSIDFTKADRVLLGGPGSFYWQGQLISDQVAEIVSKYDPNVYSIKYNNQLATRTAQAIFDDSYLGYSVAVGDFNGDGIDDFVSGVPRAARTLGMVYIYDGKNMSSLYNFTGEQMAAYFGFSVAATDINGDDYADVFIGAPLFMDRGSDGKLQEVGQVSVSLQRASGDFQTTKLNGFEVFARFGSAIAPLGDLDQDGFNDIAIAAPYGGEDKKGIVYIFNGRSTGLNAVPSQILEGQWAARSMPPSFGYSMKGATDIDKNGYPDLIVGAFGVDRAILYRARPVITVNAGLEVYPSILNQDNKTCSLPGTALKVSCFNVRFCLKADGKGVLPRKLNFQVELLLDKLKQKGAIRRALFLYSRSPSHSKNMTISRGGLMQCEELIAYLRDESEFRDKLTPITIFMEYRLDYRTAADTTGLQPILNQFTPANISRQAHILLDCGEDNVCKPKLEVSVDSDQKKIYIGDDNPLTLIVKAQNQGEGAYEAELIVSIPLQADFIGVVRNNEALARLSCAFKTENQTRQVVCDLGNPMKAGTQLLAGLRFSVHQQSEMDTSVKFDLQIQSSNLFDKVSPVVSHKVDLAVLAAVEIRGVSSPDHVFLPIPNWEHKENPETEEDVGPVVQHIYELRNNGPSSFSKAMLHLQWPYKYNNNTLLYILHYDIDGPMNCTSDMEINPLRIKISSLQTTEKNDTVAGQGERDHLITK", "sequence (P06756 891-1048 partner)": "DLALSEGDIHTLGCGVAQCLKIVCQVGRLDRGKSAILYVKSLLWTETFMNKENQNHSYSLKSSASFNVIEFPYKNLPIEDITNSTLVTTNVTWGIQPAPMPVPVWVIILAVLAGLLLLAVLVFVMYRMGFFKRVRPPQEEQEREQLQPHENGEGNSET", "sequence (P05556 21-798)": "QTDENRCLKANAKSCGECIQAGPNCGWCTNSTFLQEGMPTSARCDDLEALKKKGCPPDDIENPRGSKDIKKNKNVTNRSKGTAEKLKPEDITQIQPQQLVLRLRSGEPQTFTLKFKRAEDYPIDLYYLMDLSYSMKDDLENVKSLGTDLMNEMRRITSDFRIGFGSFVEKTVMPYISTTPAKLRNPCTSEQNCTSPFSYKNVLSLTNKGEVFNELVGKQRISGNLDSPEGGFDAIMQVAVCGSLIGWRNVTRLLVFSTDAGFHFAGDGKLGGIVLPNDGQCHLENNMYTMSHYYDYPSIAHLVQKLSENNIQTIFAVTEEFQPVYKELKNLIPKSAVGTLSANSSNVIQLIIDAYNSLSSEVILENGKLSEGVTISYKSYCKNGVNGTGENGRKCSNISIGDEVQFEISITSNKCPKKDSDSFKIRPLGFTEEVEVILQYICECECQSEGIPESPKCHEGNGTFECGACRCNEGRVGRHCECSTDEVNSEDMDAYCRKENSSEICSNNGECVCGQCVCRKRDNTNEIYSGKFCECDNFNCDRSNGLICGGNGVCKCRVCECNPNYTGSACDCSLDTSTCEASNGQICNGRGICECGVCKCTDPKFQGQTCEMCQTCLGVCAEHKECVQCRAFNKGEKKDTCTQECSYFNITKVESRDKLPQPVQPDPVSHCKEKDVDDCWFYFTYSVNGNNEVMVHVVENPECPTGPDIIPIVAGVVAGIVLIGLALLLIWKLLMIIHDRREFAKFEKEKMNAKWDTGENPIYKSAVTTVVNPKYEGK", "assay": "Cell adhesion assay: inhibition of αvβ1 expressing CHO cells attaching to TGFβ1LAP", "type": "cell-based", "conditions": "1 h at 37° C., crystal violet absorbance 595 nm, read-out: αvβ1 Inhibition IC50 (nM)-range", "how_it_was_run": "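Plates coated with 2 ug/ml TGFβ1LAP and blocked with 2% BSA; cells (1.0×10^6 cells/ml in DMEM) incubated with compound 1 hour at 37° C. Non-adherent cells removed by centrifugation; adherent cells stained with crystal violet, absorbance 595 nm, IC50 by four-parameter non-linear regression.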"}, "[2]": {"target": "recombinant human integrin αvβ1 (Homo sapiens (Human), UniProt P05556+P06756)", "sequence (P06756 31-889)": "as the sequence (P06756 31-889) above", "sequence (P06756 891-992 partner)": "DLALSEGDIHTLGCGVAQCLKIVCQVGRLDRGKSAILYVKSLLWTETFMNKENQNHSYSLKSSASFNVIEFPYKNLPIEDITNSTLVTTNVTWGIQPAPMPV", "sequence (P05556 21-728)": "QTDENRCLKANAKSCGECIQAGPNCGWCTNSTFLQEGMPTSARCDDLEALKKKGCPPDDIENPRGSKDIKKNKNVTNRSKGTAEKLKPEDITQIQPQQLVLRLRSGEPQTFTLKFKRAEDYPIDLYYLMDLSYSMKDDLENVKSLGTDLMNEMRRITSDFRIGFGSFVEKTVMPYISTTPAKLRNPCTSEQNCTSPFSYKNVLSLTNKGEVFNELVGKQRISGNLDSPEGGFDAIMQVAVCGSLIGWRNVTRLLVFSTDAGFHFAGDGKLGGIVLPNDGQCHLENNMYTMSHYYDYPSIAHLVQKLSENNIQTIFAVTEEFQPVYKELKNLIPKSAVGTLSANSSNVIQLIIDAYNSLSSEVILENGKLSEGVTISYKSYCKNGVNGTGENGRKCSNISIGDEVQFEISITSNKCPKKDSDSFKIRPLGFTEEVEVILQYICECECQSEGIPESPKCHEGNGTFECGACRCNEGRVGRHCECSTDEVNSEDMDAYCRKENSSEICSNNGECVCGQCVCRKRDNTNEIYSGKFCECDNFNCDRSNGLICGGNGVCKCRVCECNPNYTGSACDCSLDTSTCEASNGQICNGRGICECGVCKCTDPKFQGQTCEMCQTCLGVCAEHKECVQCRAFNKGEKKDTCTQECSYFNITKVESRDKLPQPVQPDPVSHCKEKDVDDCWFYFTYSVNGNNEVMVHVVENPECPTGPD", "assay": "Solid phase integrin αvβ1 binding assay (fibronectin)", "conditions": "recombinant human integrin αvβ1 coated plate, recombinant fibronectin 2 ug/ml, 2 hours at 25° C., read-out: αvβ1 Inhibition IC50 (nM)-range", "protocol": "Example B2—Solid Phase Integrin αvβ1 Binding Assay\nMicroplates were coated with recombinant human integrin αvβ1 (2 ug/ml) in PBS (100 ul/well 4° C., overnight). The coating solution was removed, washed with PBS. Plate was blocked with 200 ul/well of Block Buffer (2% BSA in PBS) at 37° C. for 1 h. Dilutions of testing compounds and recombinant fibronectin (2 ug/ml) in binding and washing buffer (50 mM Tris-HCl, ph7.5; 0.1% BSA, 1 mM MnCl2; NaCl 150 mM; 0.02% Tween-20; 1 mM CaCl2); 1 mM MgCl2) were added. The plate was incubated for 2 hours at 25° C., washed, and incubated for 1 hour with Biotin-Anti-fibronectin. Bound antibody was detected by peroxidase-conjugated streptavidin. The IC50 values for testing compounds were calculated by a four-parameter logistic regression.\nThe compounds tested were compound samples prepared according to procedures described in the Synthetic Examples section, with the stereochemical purity as indicated in the Examples. The compounds tested were predominantly S-configuration at the alpha carbon of the amino acid scaffold, except for compounds 123, 124, and 125 which were predominantly R-configuration at the alpha carbon of the amino acid scaffold."}}}
{"smiles": "Cn1ncc2ccc(C(=O)NC(CCCCCCCc3ccc4c(n3)NCCC4)C(=O)O)cc21", "note": "(centres unmarked) [Compound 81, 2-(1-methyl-1H-indazole-6-carboxamido)-9-(5,6,7,8-tetrahydro-1,8-naphthyridin-2-yl)nonanoic acid]", "values": [{"measurement": "IC50", "setting": "[1]", "result": "50 to 250", "unit": "nM"}, {"measurement": "IC50", "setting": "[2]", "result": "< 50", "unit": "nM"}]}
